The test system of data set [1] is RAW264.7. Kind of data set: Cytotoxicity against mouse RAW264.7 cells after 18 hrs by MTS assay. The following applies: raw264.7, 18 h. Format: cell-based.
In data set [2] the test system is SW480. Kind of data set: Cytotoxicity against human SW480 cells after 48 hrs by MTT assay. The data set is classed as functional, cell-based. The following applies: SW480, 48 h.
Data set [3] concerns RAW264.7. Kind of data set: Antiinflammatory activity in mouse RAW264.7 cells assessed as inhibition of LPS-induced nitric oxide production after 18 hrs by Griess method. The data set is classed as functional, cell-based. The following applies: RAW264.7, 18 h.
In data set [4] the test system is A549. Put plainly: Cytotoxicity against human A549 cells after 48 hrs by MTT assay. Format: functional, cell-based. Particulars: A549, 48 h.
Data set [5] concerns MCF7. Put plainly: Cytotoxicity against human MCF7 cells after 48 hrs by MTT assay. Format: functional, cell-based. Particulars: MCF7, 48 h.
For data set [6], the system named is SMMC-7721. Kind of data set: Cytotoxicity against human SMMC7721 cells after 48 hrs by MTT assay. Format: functional, cell-based. The following applies: SMMC-7721, 48 h.
Data set [7] has as its system HL-60. Kind of data set: Cytotoxicity against human HL60 cells after 48 hrs by MTT assay. Format: functional, cell-based. The following applies: HL-60, 48 h.

In ChEMBL document CHEMBL2406996, “Bioactive ent-kaurane diterpenoids from Isodon rosthornii” (J Nat Prod, 2013) one finds Activity and IC50 data, which are given here for 22 compounds.

The structures appear in SMILES notation. Residues, ends and D or L forms follow the SMILES beside them. *: point of attachment. Cbz = O=C(OCc1ccccc1)*

With `C=C1C(=O)[C@]23[C@H](O)[C@H]1C[C@@H](O)[C@H]2[C@]12CCCC(C)(C)[C@H]1[C@H](O)[C@@]3(O)OC2`, in data set [1], the Activity result was “Non-toxic”. Moreover, the half-maximal inhibitory concentration (IC50) in data set [2] was 2.5 µM; in data set [3], 1.7 µM; in data set [4], 8.6 µM; in data set [5], 5.1 µM; in data set [6] it was 4.5 µM; in data set [7], 3.5 µM.

`C=C1[C@@H](O)[C@@]23C(=CC[C@@H]1[C@H]2O)[C@@]12CO[C@@]3(O)[C@@H](O)[C@@H]1C(C)(C)CC[C@@H]2O`: the Activity result in data set [1] is given as “Non-toxic”. Besides, the IC50 in data set [2] is > 10 µM; in data set [3], > 25 µM; in data set [4], > 10 µM; in data set [5], > 10 µM; in data set [6], > 10 µM; in data set [7], > 10 µM.

In the case of `C=C1C(=O)[C@]23C[C@H]1CC=C2[C@@]12CO[C@@]3(O)[C@@H](O)[C@@H]1C(C)(C)CC[C@@H]2O`, the Activity result in data set [1] was “Non-toxic”. Moreover, the IC50 in data set [2] was 3.4 µM; in data set [3], 2 µM; in data set [4] it was 4.6 µM; in data set [5], 3.3 µM; in data set [6], 3.5 µM; in data set [7], 8.8 µM.

As to `C=C1C(=O)[C@]23[C@H](O)[C@H]1CC[C@H]2[C@@]12CO[C@]3(O)[C@@H](O)[C@@H]1C(C)(C)CC[C@@H]2O` [ORIDONIN], the Activity entry in data set [1] is listed as “Non-toxic”. In addition, the IC50 in data set [2] is > 10 µM; in data set [3] it was 5.2 µM; in data set [4] it was > 10 µM; in data set [5], > 10 µM; in data set [6], > 10 µM; in data set [7], 2.5 µM.

For `C[C@@H]1[C@@H]2CC[C@H]3[C@]45CCCC(C)(C)[C@H]4[C@H](O)[C@](O)(OC5=O)[C@@]3([C@@H]1O)[C@@H]2O`, in data set [1], the Activity result is recorded as “Non-toxic”. Further, the 50% inhibitory concentration (IC50) in data set [2] is > 10 µM; in data set [3], > 25 µM; in data set [4], > 10 µM; in data set [5] it was > 10 µM; in data set [6] it was > 10 µM; in data set [7] it was > 10 µM.

As to `C=C1C(=O)[C@]23[C@H](O)[C@H]1CC[C@H]2[C@@]12[C@H](OCC)O[C@@]3(O)[C@@H](O)[C@@H]1C(C)(C)CC[C@@H]2O` (relative stereo), the Activity result in data set [1] was “Non-toxic”. Besides, the IC50 is 7.8 µM in data set [2]; 3.9 µM in data set [3]; > 10 µM in data set [4]; 8.4 µM in data set [5]; > 10 µM in data set [6]; 5.9 µM in data set [7].

On to `C=C1[C@@H](O)[C@]23[C@H](O)[C@H]1CC[C@H]2[C@@]12C(=O)O[C@]3(O)[C@@H](O)[C@@H]1C(C)(C)CC[C@@H]2O`, for which the Activity entry in data set [1] is reported as “Non-toxic”. The IC50 in data set [3] is 6.1 µM.

For the compound `C=C1C(=O)[C@@]23[C@@H]4OC(C)(C)O[C@@]25OC[C@]2(CCCC(C)(C)[C@H]2[C@@H]5O)[C@@H]3[C@@H](O)C[C@@H]14`, in data set [1], the Activity result is recorded as “Non-toxic”. Further, the half-maximal inhibitory concentration (IC50) in data set [2] was 2 µM; in data set [3], 1.1 µM; in data set [4] it was 3.4 µM; in data set [5] it was 1.8 µM; in data set [6], 2.6 µM; in data set [7], 1.5 µM.

Regarding `C=C1C(=O)[C@]23[C@H](O)[C@H]1CC[C@H]2[C@@]12[C@@H](OCCCC)O[C@@]3(O)[C@@H](O)[C@@H]1C(C)(C)CC[C@@H]2O` (mixture of isomers), in data set [1], the Activity result was “Non-toxic”. Further, the IC50 came out at 2.8 µM in data set [2]; 1.5 µM in data set [3]; 3.9 µM in data set [4]; 2.6 µM in data set [5]; 3.2 µM in data set [6]; 1.2 µM in data set [7].

On to `C=C1C(=O)[C@]23[C@H](O)[C@H]1CC[C@H]2[C@@]12C(OC)O[C@@]3(O)[C@@H](O)[C@@H]1C(C)(C)CC[C@H]2O` (stereo partly specified) [RABDOTERNIN E], for which the Activity entry in data set [1] is “Non-toxic”. Further, the IC50 in data set [2] was 4.1 µM; in data set [3], 2.3 µM; in data set [4], > 10 µM; in data set [5], > 10 µM; in data set [6], > 10 µM; in data set [7], 2.6 µM.

Consider `C=C1[C@@H](O)[C@]23[C@H](O)[C@H]1CC[C@H]2[C@@]12C(OC)O[C@]3(O)[C@@H](O)[C@@H]1C(C)(C)CC[C@@H]2O` (stereo partly specified), for which, in data set [1], the Activity result is listed as “Non-toxic”. The IC50 was > 10 µM in data set [2]; > 25 µM in data set [3]; > 10 µM in data set [4]; > 10 µM in data set [5]; > 10 µM in data set [6]; 5.3 µM in data set [7].

In the case of `C=C1[C@H]2CC3=C4[C@](C2)(C(=O)O[C@H]2CCC(C)(C)[C@@H]([C@@H](O)O3)[C@]42C=O)[C@@H]1OC(C)=O`, the Activity entry in data set [1] was “Non-toxic”. Further, the IC50 in data set [2] was > 10 µM; in data set [3], > 25 µM; in data set [4], > 10 µM; in data set [5], > 10 µM; in data set [6] it was > 10 µM; in data set [7] it was > 10 µM.

For the compound `CC(=O)O[C@H]1C(=O)[C@@]2(C)[C@H]([C@H](OC(=O)c3ccccc3)[C@]3(O)C[C@H](OC(=O)[C@H](O)[C@@H](NC(=O)c4ccccc4)c4ccccc4)C(C)=C1C3(C)C)[C@]1(OC(C)=O)CO[C@@H]1C[C@@H]2O` [PACLITAXEL], the IC50 is 0.04 µM in data set [2], < 0.008 µM in data set [5], < 0.008 µM in data set [6] and < 0.008 µM in data set [7].

On to `C[C@@H]1[C@@H]2C[C@H](O)[C@H]3[C@]45CCCC(C)(C)[C@H]4[C@H](O)[C@](O)(OC5)[C@@]3([C@@H]1O)[C@@H]2O`, for which the Activity entry in data set [1] is reported as “Non-toxic”. Moreover, the IC50 in data set [2] was > 10 µM; in data set [3], > 25 µM; in data set [4], > 10 µM; in data set [5], > 10 µM; in data set [6] it was > 10 µM; in data set [7], > 10 µM.

On to `CC(C)C[C@@H](C=O)NC(=O)[C@H](CC(C)C)NC(=O)[C@H](CC(C)C)NC(=O)OCc1ccccc1` [MG-132] (Cbz-Leu-Leu-Leu-aldehyde), for which, in data set [1], the Activity entry was “Non-toxic”. Moreover, the IC50 in data set [3] amounted to 0.1 µM.

Consider `C=C1[C@H]2C[C@@H]3OC(=O)[C@@H]4C(C)(C)CC[C@@H]5OC(=O)[C@](C2)([C@@H]1O)[C@@H]3[C@]54C=O`, for which, in data set [1], the Activity entry is “Non-toxic”. For the same compound, the half-inhibitory concentration (IC50) is > 10 µM in data set [2]; 2 µM in data set [3]; > 10 µM in data set [4]; > 10 µM in data set [5]; > 10 µM in data set [6]; 6.1 µM in data set [7].

As for `C=C1[C@H]2CC[C@@H]3[C@](C2)(C(=O)O[C@@H]2CCC(C)(C)[C@H]4[C@H](O)O[C@@H](OC)[C@@]432)[C@@H]1OC(C)=O`, in data set [1], the Activity result is “Non-toxic”. For the same compound, the IC50 is > 10 µM in data set [2]; > 25 µM in data set [3]; > 10 µM in data set [4]; > 10 µM in data set [5]; > 10 µM in data set [6]; > 10 µM in data set [7].

Regarding `C=C1C(=O)[C@]23[C@H](O)[C@H]1CC[C@H]2[C@@]12CO[C@@]3(O)[C@@H](O)[C@@H]1C(C)(C)CC[C@@H]2OC(C)=O` [LASIOKAURIN], the Activity entry in data set [1] is recorded as “Non-toxic”. In addition, the IC50 came out at 2.4 µM in data set [2]; 1.9 µM in data set [3]; 6.7 µM in data set [4]; 2.5 µM in data set [5]; 2.7 µM in data set [6]; 1.8 µM in data set [7].

With `C=C1C(=O)[C@]23[C@H](O)[C@H]1CC[C@H]2[C@@]12[C@@H](OC)O[C@]3(O)[C@@H](O)[C@@H]1C(C)(C)CC[C@@H]2O`, the Activity entry in data set [1] was “Non-toxic”. In addition, the IC50 in data set [2] is 9.4 µM; in data set [3], > 25 µM; in data set [4] it was > 10 µM; in data set [5], > 10 µM; in data set [6], > 10 µM; in data set [7], 7 µM.

As to `C=C1C(=O)[C@]23[C@H](OC(C)=O)[C@H]1C[C@H](OC(C)=O)[C@H]2[C@]12CCCC(C)(C)[C@H]1[C@H](O)[C@]3(O)OC2`, the Activity entry in data set [1] is listed as “Non-toxic”. Besides, the IC50 in data set [2] is 3.2 µM; in data set [3], 6.3 µM; in data set [4] it was > 10 µM; in data set [5], > 10 µM; in data set [6], > 10 µM; in data set [7], 4.6 µM.

Turning to `C=C1[C@H]2C[C@H](O)[C@@H]3[C@](C2)(C(=O)O[C@@H]2CCC(C)(C)[C@H]4[C@H](O)O[C@H](OC)[C@@]432)[C@@H]1OC(C)=O` (relative stereo), the Activity entry in data set [1] is reported as “Non-toxic”. In addition, the IC50 is 3.3 µM in data set [2]; 1.5 µM in data set [3]; > 10 µM in data set [4]; 3.5 µM in data set [5]; > 10 µM in data set [6]; 4.3 µM in data set [7].

As to `C=C1C(=O)[C@]23C[C@H]1CC[C@H]2[C@@]12CO[C@]3(O)[C@@H](O)[C@@H]1C(C)(C)CC[C@@H]2O`, the Activity entry in data set [1] is listed as “Non-toxic”. For the same compound, the concentration for half-maximal inhibition (IC50) amounted to 3.2 µM in data set [2]; 3.4 µM in data set [3]; 5.6 µM in data set [4]; 4.2 µM in data set [5]; 5.9 µM in data set [6]; 7.9 µM in data set [7].
